Reference: PubChem BioAssay AID2060490 (Molecular Pharmacology Branch, DTP, NCI, 2025)
Values joined by “and” are separate entries in the source; they are usually repeats but may differ in a detail not shown here. Identical values can stand only once.

Tested on: 885512-296-R-J2-PDC complex spheroid viability
Experiment: Anticancer human tumor 885512-296-R-J2-PDC patient-derived breast carcinoma cell line growth inhibition [GQUAD]
Conditions: for viability, T/C: stronger effect = lower value
Excerpt: DNA G-quadruplex Stabilizer Agents in Combinations in Complex Spheroids
A high-throughput screen of multi-cell type tumor spheroids was designed to identify active combinations of DNA G-quadruplex stabilizer agents and targeted small molecules. Complex spheroids include a stromal component modeled by human endothelial cells (HUVEC) and fibroblasts modeled by human mesenchymal stem cells (MSCs). The concentration ranges selected for each drug and investigational agent were based upon clinically achievable concentrations if the clinical Cmax of the agent was known.
Compounds. The drugs and investigational agents: pidnarulex (CX-5461; NSC782164), APTO-253 (NSC789042), BRACO-19 (NSC847499), peposertib (NSC802822), ceralasertib (NSC780249), elimusertib (NSC800525), camonsertib (NSC841442), AZD-1390 (NSC803789), olaparib (NSC753686), talazoparib (NSC767125), ART-558 (NSC835418), sotorasib (NSC818433), MRTX-1133 (NSC836407), SN-38 (NSC673596), topotecan (NSC609699), etoposide (NSC141540), doxorubicin (NSC123127), gemcitabine (NSC613327), 5-fluorouracil (NSC19893), paclitaxel (NSC125973), vemurafenib (NSC761431), panobinostat (NSC761190), R-306465 (JNJ-16241199; NSC773264), adavosertib (NSC754352), TP-3654 (NSC805149), carboplatin (NSC241240), KSQ-4279 (NSC840948), and staurosporine (NSC755774) were obtained from the National Cancer Institute (NCI) Developmental Therapeutics Program Chemical Repository (34). The FDA-approved anticancer drug set is available from the NCI Developmental Therapeutics Program. […] The stock solutions were prepared in dimethyl sulfoxide (DMSO, Sigma-Aldrich, St. Louis, MO, cat. D2650) at 800-fold the tested concentration and stored at -70 degrees C prior to their use. All drugs and investigational agents were tested over a range starting from a high concentration at or near the clinical Cmax and decreasing in half-log increments. If the clinical Cmax for an agent had not been determined, the highest concentration tested was 10 microM.
2.3 Cell Culture. All cells were maintained in an incubator at 37 degrees C and 5% CO2 with 95% humidity. The PDC lines were cultured according to standard operating procedures established by the NCI PDMR. All PDCs were thawed and cultured in Matrigel-coated flasks prepared with a working solution of 1X Ham's F-12 nutrient mix, without supplementation (Invitrogen, cat. 11765054), 100 U/mL penicillin-streptomycin (Invitrogen, cat. 15140122), and 2.5% Matrigel (Corning Inc., cat. 354248) for the first three passages. The 857933-349-R-J2-PDC line was cultured in 6C/Colon 1B media, which includes advanced DMEM/F-12 (Thermo Fisher Scientific, cat. 12634028), 10 mM HEPES (Thermo Fisher Scientific, cat. 15630080), 1X GlutaMAX supplement (Thermo Fisher Scientific, cat. 35050061), 0.1 mg/mL primocin (InvivoGen, cat. ant-pm-2), 10% defined fetal bovine serum, heat inactivated (HyClone Laboratories Inc., cat. SH30070.03HI), 50% L-WRN conditioned media (ATCC, cat. CRL-3276), 1.25 mM N-Acetyl-L-cysteine (Sigma-Aldrich, cat. A9165), 10 mM nicotinamide (Sigma-Aldrich, cat. N0636), 1X B-27 supplement (Thermo Fisher Scientific, cat. 17504044), 1X N-2 supplement (Thermo Fisher Scientific, cat. 17502048), 10 microM Y-27632 dihydrochloride (Tocris Bioscience, cat. 1254), and 50 ng/mL human EGF recombinant protein (Thermo Fisher Scientific, cat. PHG0311). The 485176-168-R4-J1-PDC line was cultured in Panc media, which includes all 6C/Colon 1B media components plus 100 ng/mL human FGF-10 (Thermo Fisher Scientific, cat. 100-26), 500 nM SB-431542 (Selleckchem, cat. S1067), and gastrin (Tocris, cat. 3006).
[…]
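Note: spheroids exposed to the compounds for one week.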
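Throughout, for viability, T/C: percent of tumor spheroid viability relative to DMSO vehicle control wells.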

`CC[C@@]1(O)C(=O)OCc2c1cc1n(c2=O)Cc2cc3c(CN(C)C)c(O)ccc3nc2-1` + Cc1cnc(CNC(=O)c2c(=O)c3ccc(N4CCCN(C)CC4)nc3n3c2sc2ccccc23)cn1 was tested, and the IC50 (curve of first compound, second compound 0.0316 µM) was 13.9 nM, the IC50 (curve of first compound, second compound 0.1 µM) was 3.86 nM and the IC50 (curve of first compound, second compound 0.316 µM) was under 0.999 nM. For the same compound, the IC50 (curve of first compound, second compound 1 µM) was under 0.999 nM, the IC50 (curve of first compound, second compound 3.16 µM) was under 0.999 nM and the IC50 (curve of first compound, second compound 10 µM) was under 0.999 nM. The viability, T/C (second compound 0.0316 µM, first compound 0.000999 µM) was 82.1%, the viability, T/C (second compound 0.0316 µM, first compound 0.00316 µM) was 77.9% and the viability, T/C (second compound 0.0316 µM, first compound 0.00999 µM) was 62.1%. For the same compound, the viability, T/C (second compound 0.0316 µM, first compound 0.0316 µM) was 20.5%, the viability, T/C (second compound 0.0316 µM, first compound 0.0999 µM) was 15.2% and the viability, T/C (second compound 0.0316 µM, first compound 0.316 µM) was 6.65%. For the same compound, the viability, T/C (second compound 0.1 µM, first compound 0.000999 µM) was 63.8%, the viability, T/C (second compound 0.1 µM, first compound 0.00316 µM) was 52.1% and the viability, T/C (second compound 0.1 µM, first compound 0.00999 µM) was 37.4%. It also gave a viability, T/C (second compound 0.1 µM, first compound 0.0316 µM) of 20.1%, a viability, T/C (second compound 0.1 µM, first compound 0.0999 µM) of 13.4% and a viability, T/C (second compound 0.1 µM, first compound 0.316 µM) of 9.1%. The viability, T/C (second compound 0.316 µM, first compound 0.000999 µM) was 30%, the viability, T/C (second compound 0.316 µM, first compound 0.00316 µM) was 19.1% and the viability, T/C (second compound 0.316 µM, first compound 0.00999 µM) was 21.3%. For the same compound, the viability, T/C (second compound 0.316 µM, first compound 0.0316 µM) was 16.1%, the viability, T/C (second compound 0.316 µM, first compound 0.0999 µM) was 16.9% and the viability, T/C (second compound 0.316 µM, first compound 0.316 µM) was 12%. It also gave a viability, T/C (second compound 1 µM, first compound 0.000999 µM) of 21.8%, a viability, T/C (second compound 1 µM, first compound 0.00316 µM) of 22.8% and a viability, T/C (second compound 1 µM, first compound 0.00999 µM) of 18.4%. The viability, T/C (second compound 1 µM, first compound 0.0316 µM) was 20.1%, the viability, T/C (second compound 1 µM, first compound 0.0999 µM) was 15.2% and the viability, T/C (second compound 1 µM, first compound 0.316 µM) was 12%. It also gave a viability, T/C (second compound 3.16 µM, first compound 0.000999 µM) of 29.7%, a viability, T/C (second compound 3.16 µM, first compound 0.00316 µM) of 24% and a viability, T/C (second compound 3.16 µM, first compound 0.00999 µM) of 24.8%. For the same compound, the viability, T/C (second compound 3.16 µM, first compound 0.0316 µM) was 20.2%, the viability, T/C (second compound 3.16 µM, first compound 0.0999 µM) was 12.8% and the viability, T/C (second compound 3.16 µM, first compound 0.316 µM) was 8.5%. For the same compound, the viability, T/C (second compound 10 µM, first compound 0.000999 µM) was 0.07%, the viability, T/C (second compound 10 µM, first compound 0.00316 µM) was 0.13% and the viability, T/C (second compound 10 µM, first compound 0.00999 µM) was 0.24%. It also gave a viability, T/C (second compound 10 µM, first compound 0.0316 µM) of 0.16%, a viability, T/C (second compound 10 µM, first compound 0.0999 µM) of 0.17% and a viability, T/C (second compound 10 µM, first compound 0.316 µM) of 0.14%.

For `CC[C@@]1(O)C(=O)OCc2c1cc1n(c2=O)Cc2cc3c(CN(C)C)c(O)ccc3nc2-1`, the viability, T/C (compound 0.000999 µM) was 116% and 100% and 107%, the viability, T/C (compound 0.00316 µM) was 93.6% and 104% and 96.9% and the viability, T/C (compound 0.00999 µM) was 84% and 86.7% and 91.6%. The viability, T/C (compound 0.0316 µM) was 47.7% and 30.2% and 36.7%, the viability, T/C (compound 0.0999 µM) was 11.4% and 8.49% and 7.63% and the viability, T/C (compound 0.316 µM) was 4.95% and 2.59% and 5.86%. For the same compound, the IC50 (curve of compound) was 27.4 nM and 21.2 nM and 23.9 nM.
